Results taken from patent US20080113927A1, “Indolopyrrolocarbazole derivatives and anti-tumor agent” (priority 2003, published 2008).

Tests used:
[1] = tested on: MKN-45 (human stomach cancer cells); assay: Cell-growth inhibitory activity against MKN-45 (WST-8 method); assay type: cell-based; settings: 72 h, MKN-45 cells, 3 days incubation, read-out: 50% tumor growth inhibiting activity (IC50)
Protocol: Method for Determining the Effects of the Agent on Cells
Fetal calf serum (FCS) was obtained from Molgate and the DMEM culture medium from Asahi Technoglass Inc.
Human gastric cancer cell MKN-45 was obtained from the IBL Co., Ltd.
The cells were suspended in 10% FCS-DMEM medium and the suspension was distributed in a 96-well plastic plate in the amount of 1000 cells/50 microliter/well. The plate was incubated at 37° C. in 5% CO2-95% air overnight. Each drug was dissolved in dimethylsulfoxide or a suitable solvent by serial dilution and distributed in the wells at 50 microliters per well in which the cells had been added. The plate was incubated at 37° C. in 5% CO2-95% air for 3 days. The growth of the cultured cells was measured by the WST-8 method (H. Tominaga et al., Anal. Commun., 36, 47-50 (1999)). In the WST-8 method, 10 microliter of WST-8 reagent solution was added, and then incubated at 37° C. for 1 to 6 hours. After stirring the plate, the resulting formazan was quantitatively analyzed by colorimetry to determine the inhibition rate of the drug. Thus, 50% inhibitory concentration (IC50) for the growth was determined for each compound.

[2] = tested on: Human lung cancer cells LX-1; assay: Anti-tumor effect on LX-1 solid tumor transplanted subcutaneously in nude mice; assay type: in vivo, nude mice (Balb/c-nu/nu); settings: LX-1 in nude mice
Source text: Method for Determining the Effects of the Agent on Animals
Female nude mice of 5 weeks of age (Balb/c-nu/nu) were obtained from Clea Japan, Inc. Human lung cancer cells LX-1 were obtained from the Japanese Foundation for Cancer Research Institute.
The synthesis of the control compound is described in JP-A No. 10-245390, Example 14.
The cancer cells were transplanted subcutaneously to nude mice so that solid cancer can be maintained. The solid cancer was sliced into 3 mm cubic blocks in physiological saline under ice cooling. One of the blocks was transplanted subcutaneously to a nude mouse to be used in experiment (Day 1). The cancer cells were grown subcutaneously in the mouse to form a tumor mass. The size of the mass was measured with a lapse of time, and when the volume reached 0.2 cm^3 or more (approximation by volume=major axis×minor axis^2÷2), administration of the drug was started. The drug was dissolved in 5% glucose solution and administered intravenously at the tail successively twice a week for 2 weeks (total 4 times). Two weeks after the administration, the percentage (T/C%) of the tumor volume (T) was calculated from the tumor volume (C) in the control group and that (T) in the test group as a tumor volume ratio.

IC50 [1] [nM] | SMILES | Anti-tumor activity against human lung cancer cells compared with the control compound ([2]; comparison from Table 2) | Ratio of tumor volume Treated/Control (%) ([2]; i.v. twice a week for 2 weeks, total dose 1200 mg/m^2, two weeks after the administration)
6.3 | O=C1c2c(c3c4ccc(O)cc4n(C4OC(CO)C(O)C(O)C4O)c3c3[nH]c4cc(O)ccc4c23)C(=O)N1NCCCc1cccnc1 (stereo not shown) [Example 4] |  | 
4.1 | O=C1c2c(c3c4ccc(O)cc4n(C4OC(CO)C(O)C(O)C4O)c3c3[nH]c4cc(O)ccc4c23)C(=O)N1NCc1cccs1 (stereo not shown) [Example 8] |  | 
2.8 | O=C1c2c(c3c4ccc(O)cc4n(C4OC(CO)C(O)C(O)C4O)c3c3[nH]c4cc(O)ccc4c23)C(=O)N1NCc1ccoc1 (stereo not shown) [Example 5] |  | 
0.95 | O=C1c2c(c3c4ccc(O)cc4n(C4OC(CO)C(O)C(O)C4O)c3c3[nH]c4cc(O)ccc4c23)C(=O)N1NCc1cccnc1 (stereo not shown) [Example 3] |  | 
2.7 | O=C1c2c(c3c4ccc(O)cc4n(C4OC(CO)C(O)C(O)C4O)c3c3[nH]c4cc(O)ccc4c23)C(=O)N1NCc1ccsc1 (stereo not shown) [Example 7] |  | 
0.71 | O=C1c2c(c3c4ccc(O)cc4n(C4OC(CO)C(O)C(O)C4O)c3c3[nH]c4cc(O)ccc4c23)C(=O)N1NCc1ccncc1 (stereo not shown) [Example 1] | markedly a stronger anti-tumor activity | 1% (1200 mg/m^2)
1.4 | O=C1c2c(c3c4ccc(O)cc4n(C4OC(CO)C(O)C(O)C4O)c3c3[nH]c4cc(O)ccc4c23)C(=O)N1NCc1ccccn1 (stereo not shown) [Example 2] |  | 
5 | O=C1c2c(c3c4ccc(O)cc4n(C4OC(CO)C(O)C(O)C4O)c3c3[nH]c4cc(O)ccc4c23)C(=O)N1NCc1ccco1 (stereo not shown) [Example 6] |  | 
